Tested on: Plasmodium falciparum
Experiment: GSK_TCMDC: Inhibition of Plasmodium falciparum 3D7 in whole erythrocytes, using parasite LDH activity as an index of growth.
Assay type: functional, organism-based
Conditions: Plasmodium falciparum, 3D7

Compound | XC50
Cc1ccc(C)c(Cn2ccc3nc(Cl)nc(Cl)c32)c1 | 911 nM
COc1ccccc1CNc1ccnc(N2CC(Oc3ccc(F)cc3)C2)n1 | 850 nM
Cc1ccc(NC(=O)c2ccc(CN3CCCN(Cc4cccc(C#N)c4)CC3)cc2)cc1F | 592 nM
Cn1c(=N)n(CC(=O)N2CCc3ccc(Cl)cc3C2Cc2ccc(Cl)c(Cl)c2)c2ccccc21 (stereo not drawn) | 869 nM
COc1ccc(N2CCN(CCCNC(=O)c3ccc(NC(=O)c4cc(Cl)cc(Cl)c4)cc3)CC2)c(OC)c1 | 269 nM
CN(Cc1ccc(NC(=O)NC2CCN(C(=O)/C=C/c3ccc(Cl)c(Cl)c3)CC2)cc1)C1CCOCC1 | 876 nM
CCN1CCN(CCCNc2c3ccc(Cl)cc3nc3ccc(OC)cc23)CC1 | 149 nM
CCCc1cc(C(C)=O)ccc1OCCCON1C(=N)N=C(N)NC1(C)C | 4.57 nM
Cc1nc(-c2ccc(-c3ccc(C(=O)Nc4ccc5c(c4)C4(CCNCC4)CO5)cc3)c(C)c2)no1 | 858 nM
COc1ccc(C(=O)COc2cccc(/C=C/C(=O)O)c2)cc1OC | 1320 nM
CCOc1cccc2nc(NCCCNCc3ccc(Cl)c(Cl)c3)cc(NCCCNCc3ccc(Cl)c(Cl)c3)c12 | 574 nM
Cn1c(=O)c2cc(C(=O)NCCCN3CCCCCC3)sc2c2ccccc21 | 689 nM
Clc1cccc(CNc2nc(NCCc3c[nH]cn3)nc(NC3CCCCC3)n2)c1 | 790 nM
CC(Cc1ccc(OCCN2CCN(c3cccc(Cl)c3)CC2)cc1)NCC(O)c1cccc(C(F)(F)F)c1 (stereo not drawn) | 602 nM
CCc1c[nH]c2c(N3CCCC3=O)cc(C(=O)N[C@@H](Cc3ccccc3)[C@H](O)CNC(C)(C)c3cccc(C(F)(F)F)c3)cc12 | 115 nM
CCC(CC)n1c(COC)cc2c3c(N)nc(N)nc3ccc21 | 5.57 nM
CCCc1cc(NC2CCN(C)CC2)nc(Nc2ccc(C)cc2)n1 | 898 nM
c1ccc(CSC2=NNC(c3ccccn3)S2)cc1 (stereo not drawn) | 1480 nM
COc1cc(C=CC(=O)N2CCC3(CC2)CC(=O)c2ccccc2O3)cc(OC)c1OC | 761 nM

Compound | XC50
CN1CCN(C(C(=O)NCc2cc(Cl)cc(Cl)c2)c2ccc(NC(=O)Nc3ccccc3)cc2)CC1 (stereo not drawn) | 692 nM
COc1cc(NC(=O)CCCCCCCN2CCN(C)CC2)c2ncccc2c1 | 611 nM
Nc1nccc2ccc(-c3cccc(O)c3)cc12 | 642 nM
CCn1c(-c2nonc2N)nc2cnc(Oc3cccc(NC(=O)c4ccc(OCCCN5CCCCC5)cc4)c3)cc21 | 925 nM
COc1cccc2cc(C(=O)N[C@@H](CC(C)C)C(=O)N[C@H](/C=N/N3C(=O)CN(Cc4ccccc4)C3=O)CCc3ccccc3)oc12 | 618 nM
CC(=O)Nc1sc(C)c(C)c1CN1CCc2ccccc2C1 | 616 nM
O=C(Nc1cccc(-c2nn3ccccc3c2-c2ccnc(Nc3cccc(N4CCCC4=O)c3)n2)c1)c1cc(F)ccc1F | 212 nM
CCOC(=O)CCc1cc(F)c(F)c(OC[C@H](O)CNC(C)(C)C(O)c2ccc3ccccc3c2)c1 (stereo partly drawn) | 859 nM
O=C(Nc1ccc(OC2CCN(Cc3ccc(F)cc3)C2)c(Cl)c1)c1ccoc1 (stereo not drawn) | 938 nM
O=C(Nc1ccc2nc3n(c(=O)c2c1)CCCCC3)C(=O)N1CCN(c2ccc(F)cc2)CC1 | 636 nM
N=C(N)NC(=O)Nc1cc(Cl)c(Br)c(Cl)c1 | 469 nM
COc1ccc2nccc([C@@H](O)CN3CCC(NC(=O)C(c4cc5ccccc5o4)N4CCN(c5ccccc5OC)CC4)CC3)c2c1 (stereo partly drawn) | 308 nM
CC(=O)N(Cc1ccc(CC(C)NCCc2cccc(Cl)c2)cc1)Cc1ccc(CC(C)NCCc2cccc(Cl)c2)cc1 (stereo not drawn) | 783 nM
NS(=O)(=O)c1cccc(-c2ccc3ncc(N4CCOCC4)nc3c2)c1 | 987 nM
CCCCn1c(N)c(N(Cc2ccco2)C(=O)C=Cc2cc(OC)c3c(c2)OCCO3)c(O)nc1=O | 946 nM
O=C(Cc1cccc(Cl)c1)N1CCc2cc3nccc(N4CCN5CCC[C@H]5C4)c3cc21 | 854 nM
CC(C)(C)c1cc(C(=O)N2CCN(c3ncnc4ccsc34)CC2)n(Cc2ccccc2)n1 | 907 nM
CCn1c(-c2nonc2N)nc2c(-c3cccc(NC(=O)Nc4ccccc4OC)c3)ncc(OCCCN)c21 | 1000 nM
Cn1c(NC(=O)CCCCCNC(=O)c2ccc(O)c(-c3ccc(Cl)c(Cl)c3)c2)nc2ccccc21 | 726 nM

From ChEMBL document CHEMBL1157539, “Thousands of chemical starting points for antimalarial lead identification” (Nature, 2010)
